Consider one compound from patent publication US10787442B2, “Modulators of indoleamine 2,3-dioxygenase” (GLAXOSMITHKLINE INTELLECTUAL PROPERTY DEVELOPMENT LIMITED, priority 2016, dated 2020).

Like-named read-outs stand apart in the source and are kept apart here.

Data set [1] has as its target indoleamine 2, 3-dioxygenase (IDO1) (Homo sapiens, UniProt P14902). The data set can be described thus: IDO1 HeLa RapidFire MS Assay (kynurenine by mass spectrometry). The format is cell-based. Particulars: HeLa cells stimulated with IFN-γ, 2 days; recorded as pIC50; read-out: IDO1 HeLa PXC50 (converted). The protocol: IDO1 HeLa RapidFire MS Assay
(§1) Compounds of the present invention were tested via high-throughput cellular assays utilizing detection of kynurenine via mass spectrometry and cytotoxicity as end-points. […] Compounds with IDO1 inhibitory properties decreased the amount of kynurenine produced by the cells via the tryptophan catabolic pathway. Cellular toxicity due to the effect of compound treatment was measured using CellTiter-Glo® reagent (CTG) (Promega Corporation, Madison, Wis.), which is based on luminescent detection of ATP, an indicator of metabolically active cells.
(§2) In preparation for the assays, test compounds were serially diluted 3-fold in DMSO from a typical top concentration of 1 mM or 5 mM and plated at 0.5 μL in 384-well, polystyrene, clear bottom, tissue culture treated plates with lids (Greiner Bio-One, Kremsmünster, Austria) to generate 11-point dose response curves. Low control wells (0% kynurenine or 100% cytotoxicity) contained either 0.5 μL of DMSO in the presence of unstimulated (−IFN-γ) HeLa cells for the mass spectrometry assay or 0.5 μL of DMSO in the absence of cells for the cytotoxicity assay, and high control wells (100% kynurenine or 0% cytotoxicity) contained 0.5 μL of DMSO in the presence of stimulated (+IFN-γ) HeLa cells for both the mass spectrometry and cytotoxicity assays.
(§3) Frozen stocks of HeLa cells were washed and recovered in DMEM high glucose medium with HEPES (Thermo Fisher Scientific, Inc., Waltham, Mass.) supplemented with 10% v/v certified fetal bovine serum (FBS) (Thermo Fisher Scientific, Inc., Waltham, Mass.), and 1× penicillin-streptomycin antibiotic solution (Thermo Fisher Scientific, Inc., Waltham, Mass.). The cells were diluted to 100,000 cells/mL in the supplemented DMEM medium. 50 μL of either the cell suspension, for the mass spectrometry assay, or medium alone, for the cytotoxicity assay, were added to the low control wells, on the previously prepared 384-well compound plates, resulting in 5,000 cells/well or 0 cells/well respectively. IFN-γ was added to the remaining cell suspension at a final concentration of 10 nM, and 50 μL of the stimulated cells were added to all remaining wells on the 384-well compound plates. The plates, with lids, were then placed in a 37° C., 5% CO2 humidified incubator for 2 days.
(§4) Following incubation, the 384-well plates were removed from the incubator and allowed to equilibrate to room temperature for 30 minutes. For the cytotoxicity assay, CellTiter-Glo® was prepared according to the manufacturer's instructions, and 10 μL were added to each plate well. After a twenty minute incubation at room temperature, luminescence was read on an EnVision® Multilabel Reader (PerkinElmer Inc., Waltham, Mass.). For the mass spectrometry assay, 10 μL of supernatant from each well of the compound-treated plates were added to 40 μL of acetonitrile, containing 10 μM of an internal standard for normalization, in 384-well, polypropylene, V-bottom plates (Greiner Bio-One, Kremsmünster, Austria) to extract the organic analytes. Following centrifugation at 2000 rpm for 10 minutes, 10 μL from each well of the acetonitrile extraction plates were added to 90 μL of sterile, distilled H2O in 384-well, polypropylene, V-bottom plates for analysis of kynurenine and the internal standard on the RapidFire 300 (Agilent Technologies, Santa Clara, Calif.) and 4000 QTRAP MS (SCIEX, Framingham, Mass.). MS data were integrated using Agilent Technologies' RapidFire Integrator software, and data were normalized for analysis as a ratio of kynurenine to the internal standard.

For data set [2], the system named is human epithelial HeLa cells. The data set can be described thus: HeLa cytotoxicity assay (CellTiter-Glo). It is filed as cell-based. Conditions: cytotoxicity in stimulated HeLa cells, recorded as pCC50. The procedure: as §1, §2, §3, §4
For another data set, the target named is T1, ePL tagged IDO1 (Homo sapiens, UniProt P14902).
T1 construct: expressed in transfected cells; host or cells: HeLa cells transduced with BacMam virus
T1 sequence (P14902 whole entry): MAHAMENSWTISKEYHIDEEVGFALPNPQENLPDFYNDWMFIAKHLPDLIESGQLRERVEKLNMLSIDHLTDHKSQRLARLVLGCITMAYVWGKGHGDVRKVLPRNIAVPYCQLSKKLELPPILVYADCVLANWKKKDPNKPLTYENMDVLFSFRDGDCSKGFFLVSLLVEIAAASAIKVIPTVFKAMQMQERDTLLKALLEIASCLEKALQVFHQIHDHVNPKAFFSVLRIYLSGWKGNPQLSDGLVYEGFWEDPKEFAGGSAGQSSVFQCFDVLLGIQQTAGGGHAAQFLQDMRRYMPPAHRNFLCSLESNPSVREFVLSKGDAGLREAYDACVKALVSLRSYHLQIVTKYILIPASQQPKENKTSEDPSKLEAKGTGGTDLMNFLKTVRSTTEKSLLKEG
Briefly: CETSA (Cellular Thermal Shifting assay). It is filed as binding. Particulars: Hela cells, 3 hours at 37° C., heated at 53° C. for 3 min. The procedure:
Cellular Thermal Shifting assays were used to directly monitor the ligand binding to target proteins in cells. Hela cells were transduced with BacMam virus expressing ePL tagged IDO1 overnight. The cells were then plated over the compounds for 3 hours at 37° C. in cell culture medium containing 1% FBS. The plates were then sealed and heated at 53° C. for 3 min. InCell Hunter reagents were added and luminescence was read in 90 min.

The nature of data set [3]: Tolerability and hepatic functions in Beagle dogs, 7 day repeat oral administration. The format is in vivo, Beagle dog. An excerpt:
To understand its toxicokinetics and potential effect on hepatic functions, EXAMPLE 6 was orally dosed to Beagle dogs for 7 consecutive days.

Sequence of indoleamine 2, 3-dioxygenase (IDO1) (P14902 whole entry): as above

In the case of `CC(C)CN(c1ncc([C@H](C)CC(=O)O)cc1Nc1ccc(Cl)cn1)C1CCOCC1` [Example 6, (R)-3-(5-((5-chloropyridin-2-yl)amino)-6-(isobutyl(tetrahydro-2H-pyran-4-yl)amino)pyridin-3-yl)butanoic acid], the IC50 in data set [1] was 0.00794 µM. Besides, the HELA_IDO1_TOX_PXC50 in data set [2] was less than 5. Also, the EC50 on ePL tagged IDO1 (first value, read-out: pXC50_1 (converted)) is 0.575 µM. In addition, the EC50 on ePL tagged IDO1 (second value, read-out: pXC50_2 (converted)) is 0.759 µM. Also, in data set [3] (20 mg/kg PO BID for 7 days), the clinical observations entry is given as “no clinical observations” and the “tolerability throughout the study” value is given as “well tolerated”. Moreover, in data set [3] (20 mg/kg PO BID for 7 days, FIG. 2), the “Hepatic functions measured by serum ALT, AST, ALP and T-Bil levels” value is given as “in the normal variable ranges”. Further, the Body weights result in data set [3] (male and female dogs over the study, FIG. 1) is recorded as “constant”.
